Laboratory results from the NIST ThermoML archive (doi:10.1016/j.fluid.2005.07.010).
± gives the expanded uncertainty stated by the source.

Settings: Liquid; for mass density / viscosity: 298.15 K, 101.33 kPa; for Normal boiling temperature: Ebulliometric method (Recirculating still)

mass density | viscosity | Normal boiling temperature | Structure (SMILES)
1043.6 ± 0.6 kg/m3 | 1.115 ± 0.035 mPa·s | 117.80 ± 0.2 °C | CC(=O)O [acetic acid]
785.4 ± 0.6 kg/m3 | 1.082 ± 0.034 mPa·s | 78.28 ± 0.2 °C | CCO [ethanol]
894.4 ± 0.4 kg/m3 | 0.426 ± 0.016 mPa·s | 77.12 ± 0.2 °C | CCOC(C)=O [ethyl acetate]
